Experiment: xn = mol fraction of the nth substance listed
Conditions: 101 kPa, Liquid, Vibrating tube method

C=C[Si]1(C)O[Si](C)(C=C)O[Si](C)(C=C)O[Si](C)(C=C)O1 (stereo not given) [2,4,6,8-tetramethyl-2,4,6,8-tetravinylcycloterasiloxane] + Cc1cccc(C)c1
mass density [kg/m3]
Conditions	288.15 K	298.15 K	308.15 K	318.15 K	328.15 K
x1 = 0.05	885.05	876.18	867.36	858.49	849.53
x1 = 0.1062	900.56	891.58	882.48	873.4	864.24
x1 = 0.1505	910.91	901.78	892.55	883.33	874.04
x1 = 0.2005	921.17	911.87	902.51	893.18	883.77
x1 = 0.2501	930.07	920.57	911.13	901.66	892.14
x1 = 0.3023	938.25	928.62	919.04	909.46	899.85
x1 = 0.3442	944.08	934.35	924.72	915.05	905.37
x1 = 0.3985	950.83	941.02	931.29	921.55	911.8
x1 = 0.4491	956.41	946.51	936.74	926.91	917.12
x1 = 0.499	961.37	951.41	941.59	931.69	921.85
x1 = 0.5495	965.9	955.89	946	936.07	926.17
x1 = 0.5981	969.84	959.8	949.86	939.92	929.94
x1 = 0.6498	973.72	963.58	953.57	943.62	933.58
x1 = 0.6946	976.79	966.61	956.57	946.59	936.5
x1 = 0.7483	980.15	969.99	959.9	949.87	939.74
x1 = 0.7983	983.05	972.9	962.78	952.69	942.58
x1 = 0.8489	985.74	975.61	965.47	955.35	945.21
x1 = 0.9463	990.44	980.3	970.11	959.94	949.75
x1 = 1	992.74	982.54	972.34	962.14	951.94

C=C[Si]1(C)O[Si](C)(C=C)O[Si](C)(C=C)O[Si](C)(C=C)O1 (stereo not given) [2,4,6,8-tetramethyl-2,4,6,8-tetravinylcycloterasiloxane] + CCc1ccccc1
mass density [kg/m3]
Conditions	288.15 K	298.15 K	308.15 K	318.15 K	328.15 K
x1 = 0.0501	887.7	878.79	869.83	860.83	851.79
x1 = 0.1045	902.53	893.47	884.37	875.24	866.11
x1 = 0.1504	913.16	904	894.77	885.58	876.37
x1 = 0.2005	923.2	913.94	904.59	895.29	885.99
x1 = 0.2502	931.85	922.49	913.05	903.69	894.31
x1 = 0.3023	939.76	930.31	920.8	911.36	901.91
x1 = 0.3443	945.44	935.9	926.4	916.84	907.26
x1 = 0.3988	952.02	942.4	932.8	923.14	913.48
x1 = 0.4491	957.43	947.75	938.01	928.31	918.61
x1 = 0.499	962.24	952.49	942.68	932.88	923.08
x1 = 0.5497	966.67	956.86	946.99	937.14	927.3
x1 = 0.5979	970.47	960.6	950.7	940.8	930.9
x1 = 0.6498	974.27	964.35	954.39	944.46	934.51
x1 = 0.6946	977.23	967.27	957.29	947.3	937.32
x1 = 0.7486	980.54	970.52	960.48	950.44	940.38
x1 = 0.7994	983.4	973.34	963.28	953.21	943.13
x1 = 0.8489	985.97	975.86	965.78	955.67	945.56
x1 = 0.9467	990.55	980.33	970.21	960.03	949.84
x1 = 1	992.74	982.54	972.34	962.14	951.94

C=C[Si]1(C)O[Si](C)(C=C)O[Si](C)(C=C)O[Si](C)(C=C)O1 (stereo not given) [2,4,6,8-tetramethyl-2,4,6,8-tetravinylcycloterasiloxane] + Cc1ccccc1C
mass density [kg/m3]
Conditions	288.15 K	298.15 K	308.15 K	318.15 K	328.15 K
x1 = 0.0501	899.27	890.61	882.01	873.28	864.53
x1 = 0.1045	912.95	904.03	895.21	886.26	877.4
x1 = 0.1503	922.61	913.54	904.57	895.48	886.45
x1 = 0.2004	931.72	922.5	913.37	904.14	894.98
x1 = 0.2501	939.54	930.19	920.94	911.57	902.32
x1 = 0.3022	946.69	937.18	927.81	918.32	909.02
x1 = 0.3443	951.7	942.14	932.7	923.13	913.69
x1 = 0.3987	957.55	947.88	938.35	928.69	919.16
x1 = 0.4487	962.3	952.55	942.93	933.19	923.59
x1 = 0.499	966.62	956.77	947.08	937.26	927.63
x1 = 0.549	970.42	960.52	950.76	940.89	931.18
x1 = 0.598	973.72	963.78	954.02	944.1	934.32
x1 = 0.6483	976.93	966.95	957.08	947.12	937.26
x1 = 0.6945	979.61	969.55	959.65	949.64	939.74
x1 = 0.7483	982.42	972.33	962.38	952.33	942.34
x1 = 0.7987	984.81	974.7	964.71	954.64	944.57
x1 = 0.8489	987.06	976.91	966.88	956.77	946.68
x1 = 0.9426	990.76	980.56	970.47	960.3	950.08
x1 = 1	992.74	982.54	972.34	962.14	951.94

C=C[Si]1(C)O[Si](C)(C=C)O[Si](C)(C=C)O[Si](C)(C=C)O1 (stereo not given) [2,4,6,8-tetramethyl-2,4,6,8-tetravinylcycloterasiloxane] + Cc1ccc(C)cc1
mass density [kg/m3]
Conditions	288.15 K	298.15 K	308.15 K	318.15 K	328.15 K
x1 = 0.0501	882.57	873.71	864.79	855.81	846.77
x1 = 0.1045	898.18	889.15	879.99	870.82	861.58
x1 = 0.1528	909.95	900.78	891.46	882.13	872.74
x1 = 0.2005	919.97	910.61	901.17	891.84	882.31
x1 = 0.25	929.05	919.68	910.08	900.53	890.92
x1 = 0.3017	937.34	927.86	918.16	908.52	898.83
x1 = 0.3444	943.41	933.87	924.09	914.37	904.6
x1 = 0.3985	950.18	940.53	930.74	920.97	911.16
x1 = 0.4489	955.85	946.14	936.28	926.45	916.57
x1 = 0.4989	960.92	951.15	941.23	931.34	921.41
x1 = 0.5495	965.55	955.72	945.76	935.82	925.84
x1 = 0.5985	969.61	959.72	949.73	939.75	929.74
x1 = 0.649	973.48	963.54	953.51	943.48	933.43
x1 = 0.6941	976.62	966.59	956.55	946.5	936.42
x1 = 0.7484	980.08	970.08	959.96	949.86	939.75
x1 = 0.7992	983.04	972.97	962.87	952.74	942.62
x1 = 0.8375	985.13	975.04	964.91	954.76	944.62
x1 = 0.9462	990.42	980.26	970.11	959.92	949.73
x1 = 1	992.74	982.54	972.34	962.14	951.94

Reference: the NIST ThermoML archive (doi:10.1016/j.jct.2012.08.010)
